Assay [1] deals with T1, Bcl-XL/Bak-BH3 (Homo sapiens, UniProt Q07817). The assay is classed as binding.
The target of assay [2] is T1, Bcl-XL/Bak-BH3. Particulars: proof-of-concept study; cited from earlier work.
The mark [3] stands for this setting: GST-Bcl-XL, fluorescein-labeled Bak-BH3 peptide.

T1 sequence (Q07817 whole entry): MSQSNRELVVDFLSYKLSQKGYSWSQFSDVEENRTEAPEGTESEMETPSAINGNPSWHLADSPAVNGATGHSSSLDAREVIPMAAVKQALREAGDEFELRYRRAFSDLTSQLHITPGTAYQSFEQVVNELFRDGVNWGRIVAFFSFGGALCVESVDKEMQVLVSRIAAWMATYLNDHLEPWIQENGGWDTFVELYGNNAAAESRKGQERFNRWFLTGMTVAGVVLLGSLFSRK

The term Ki denotes the equilibrium dissociation constant of an inhibitor or competing ligand from its target. A high value points to lower affinity. `COc1cc(OC)cc(C(=O)NS(=O)(=O)c2ccc(CN(CCSc3ccccc3)Cc3ccc(S(=O)(=O)N=[N+]=[N-])cc3)cc2)c1` [SZ9TA5] returned an inhibitory constant (Ki) at Bcl-XL/Bak-BH3 [1] (setting [3]) of 14.6 ± 1 µM. On the same count and under the same terms, under `CC1(C)CCN(c2ccc(C(=O)NS(=O)(=O)c3ccc4ccc(S(=O)(=O)NCCSc5ccccc5)cc4c3)cc2)CC1` [SZ7TA2] stands 11.5 ± 1.4 µM.

In general, IC50 refers to the concentration needed to halve the response being measured. For the compound `CC1(C)CCN(c2ccc(C(=O)NS(=O)(=O)c3ccc(NCCSc4ccccc4)c([N+](=O)[O-])c3)cc2)CC1` [SZ4TA2], at Bcl-XL/Bak-BH3 [1] (setting [3]), the IC50 was determined as 0.106 ± 0.012 µM and the affinity, expressed as Ki, was 0.0375 ± 0.005 µM. Further, the “Percentage Inhibition” value at Bcl-XL/Bak-BH3 [1] (acylsulfonamide at 50 μM concentration, Bcl-XL/Bak-BH3 PPI disruption) turned out to be 100%. Besides, the IC50 inhibitory constants result at Bcl-XL/Bak-BH3 [2] is listed as “nM range”. As for `[N-]=[N+]=NS(=O)(=O)c1ccc(CN(CCSc2ccccc2)Cc2ccc(S(=O)(=O)NC(=O)c3ccccc3)cc2)cc1` [SZ9TA1], the Ki at Bcl-XL/Bak-BH3 [1] (setting [3]) was determined as 11.6 ± 1.6 µM.
